Results as given in ChEMBL document CHEMBL1201862, “PubChem BioAssay data set” (2004).
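Cells were grown in 96-well plates and exposed to each compound for 48 hours at five concentrations; endpoints were interpolated linearly between bracketing concentrations, or set to the highest concentration if not reached. The concentration for 50% growth inhibition is given as GI50.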 Active and inactive are the calls of the source. Rule as the data show it: active = GI50 up to about 1.1 µM and inactive = higher.

What was measured:
Assay in all cases: DTP human tumour cell line panel, 48 h
786-0 = system: 786-0
A498 = system: A498
A549 = system: A549
ACHN = system: ACHN
BT-549 = system: BT-549
CAKI-1 = system: CAKI-1
CCRF-CEM = system: CCRF-CEM
COLO 205 = system: COLO 205
DU-145 = system: DU-145
EKVX = system: EKVX
HCC 2998 = system: HCC 2998
HCT-116 = system: HCT-116
HCT-15 = system: HCT-15
HL-60 = system: HL-60
HOP-62 = system: HOP-62
HOP-92 = system: HOP-92
HT-29 = system: HT-29
Hs-578T = system: Hs-578T
IGROV-1 = system: IGROV-1
K562 = system: K562
KM12 = system: KM12
LOX IMVI = system: LOX IMVI
M14 = system: M14
MCF7 = system: MCF7
MDA-MB-231 = system: MDA-MB-231
MDA-MB-435 = system: MDA-MB-435
MDA-N = system: MDA-N
MOLT-4 = system: MOLT-4
Malme-3M = system: Malme-3M
NCI-H226 = system: NCI-H226
NCI-H23 = system: NCI-H23
NCI-H522 = system: NCI-H522
NCI/ADR-RES = system: NCI/ADR-RES
OVCAR-4 = system: OVCAR-4
OVCAR-5 = system: OVCAR-5
OVCAR-8 = system: OVCAR-8
RPMI-8226 = system: RPMI-8226
RXF 393 = system: RXF 393
SF-268 = system: SF-268
SF-295 = system: SF-295
SF-539 = system: SF-539
SK-MEL-2 = system: SK-MEL-2
SK-MEL-5 = system: SK-MEL-5
SK-OV-3 = system: SK-OV-3
SN12C = system: SN12C
SNB-19 = system: SNB-19
SNB-75 = system: SNB-75
SR = system: SR
SW-620 = system: SW-620
T47D = system: T47D
TK-10 = system: TK-10
U-251 = system: U-251
UACC-257 = system: UACC-257
UACC-62 = system: UACC-62
UO-31 = system: UO-31
OVCAR-3 = system: OVCAR-3

**Q.** How did the GI50 (786-0) turn out when Cc1ccc2[nH]c3c(c(=O)n(C)c(=O)n3C)c2c1 was run?
**A.** > 100 µM (inactive)

**Q.** What about the GI50 (A498) of the same compound?
**A.** > 100 µM (inactive)

**Q.** What about the GI50 (A549) of the same compound?
**A.** > 100 µM (inactive)

**Q.** And the GI50 (ACHN)?
**A.** > 100 µM (inactive)

**Q.** What about the GI50 (BT-549) of the same compound?
**A.** > 100 µM (inactive)

**Q.** What about the GI50 (CAKI-1) of the same compound?
**A.** > 100 µM (inactive)

**Q.** And the GI50 (CCRF-CEM)?
**A.** > 100 µM (inactive)

**Q.** What about the GI50 (COLO 205) of the same compound?
**A.** > 100 µM (inactive)

**Q.** What about the GI50 (DU-145) of the same compound?
**A.** > 100 µM (inactive)

**Q.** What about the GI50 (EKVX) of the same compound?
**A.** > 100 µM (inactive)

**Q.** What about the GI50 (HCC 2998) of the same compound?
**A.** > 100 µM (inactive)

**Q.** And the GI50 (HCT-116)?
**A.** > 100 µM (inactive)

**Q.** What about the GI50 (HCT-15) of the same compound?
**A.** > 100 µM

**Q.** And the GI50 (HL-60)?
**A.** > 100 µM (inactive)

**Q.** And the GI50 (HOP-62)?
**A.** > 100 µM (inactive)

**Q.** What about the GI50 (HOP-92) of the same compound?
**A.** > 100 µM (inactive)

**Q.** And the GI50 (HT-29)?
**A.** > 100 µM (inactive)

**Q.** What about the GI50 (Hs-578T) of the same compound?
**A.** > 100 µM (inactive)

**Q.** What about the GI50 (IGROV-1) of the same compound?
**A.** > 100 µM (inactive)

**Q.** And the GI50 (K562)?
**A.** > 100 µM (inactive)

**Q.** What about the GI50 (KM12) of the same compound?
**A.** > 100 µM (inactive)

**Q.** What about the GI50 (LOX IMVI) of the same compound?
**A.** > 100 µM (inactive)

**Q.** What about the GI50 (M14) of the same compound?
**A.** > 100 µM (inactive)

**Q.** And the GI50 (MCF7)?
**A.** > 100 µM (inactive)

**Q.** And the GI50 (MDA-MB-231)?
**A.** > 100 µM (inactive)

**Q.** And the GI50 (MDA-MB-435)?
**A.** > 100 µM (inactive)

**Q.** What about the GI50 (MDA-N) of the same compound?
**A.** > 100 µM (inactive)

**Q.** And the GI50 (MOLT-4)?
**A.** > 100 µM (inactive)

**Q.** What about the GI50 (Malme-3M) of the same compound?
**A.** > 100 µM (inactive)

**Q.** What about the GI50 (NCI-H226) of the same compound?
**A.** > 100 µM (inactive)

**Q.** And the GI50 (NCI-H23)?
**A.** > 100 µM (inactive)

**Q.** And the GI50 (NCI-H522)?
**A.** > 100 µM (inactive)

**Q.** And the GI50 (NCI/ADR-RES)?
**A.** > 100 µM (inactive)

**Q.** What about the GI50 (OVCAR-4) of the same compound?
**A.** > 100 µM (inactive)

**Q.** What about the GI50 (OVCAR-5) of the same compound?
**A.** > 100 µM (inactive)

**Q.** What about the GI50 (OVCAR-8) of the same compound?
**A.** > 100 µM (inactive)

**Q.** What about the GI50 (RPMI-8226) of the same compound?
**A.** > 100 µM (inactive)

**Q.** And the GI50 (RXF 393)?
**A.** > 10 µM (inactive)

**Q.** And the GI50 (SF-268)?
**A.** > 100 µM (inactive)

**Q.** And the GI50 (SF-295)?
**A.** > 100 µM (inactive)

**Q.** What about the GI50 (SF-539) of the same compound?
**A.** > 100 µM (inactive)

**Q.** And the GI50 (SK-MEL-2)?
**A.** > 100 µM (inactive)

**Q.** And the GI50 (SK-MEL-5)?
**A.** > 100 µM (inactive)

**Q.** What about the GI50 (SK-OV-3) of the same compound?
**A.** > 100 µM (inactive)

**Q.** And the GI50 (SN12C)?
**A.** > 100 µM (inactive)

**Q.** And the GI50 (SNB-19)?
**A.** > 100 µM (inactive)

**Q.** What about the GI50 (SNB-75) of the same compound?
**A.** > 100 µM (inactive)

**Q.** And the GI50 (SR)?
**A.** 84.9 µM (inactive)

**Q.** And the GI50 (SW-620)?
**A.** > 100 µM (inactive)

**Q.** What about the GI50 (T47D) of the same compound?
**A.** > 100 µM (inactive)

**Q.** What about the GI50 (TK-10) of the same compound?
**A.** > 100 µM (inactive)

**Q.** What about the GI50 (U-251) of the same compound?
**A.** > 100 µM (inactive)

**Q.** And the GI50 (UACC-257)?
**A.** > 100 µM (inactive)

**Q.** And the GI50 (UACC-62)?
**A.** > 100 µM (inactive)

**Q.** And the GI50 (UO-31)?
**A.** > 100 µM (inactive)

**Q.** How did the GI50 (786-0) turn out when O=c1[nH]c(=O)c2c([nH]1)[nH]c1ccccc12 was run?
**A.** > 100 µM (inactive)

**Q.** What about the GI50 (A498) of the same compound?
**A.** > 100 µM (inactive)

**Q.** And the GI50 (A549)?
**A.** > 100 µM (inactive)

**Q.** What about the GI50 (ACHN) of the same compound?
**A.** > 100 µM (inactive)

**Q.** And the GI50 (BT-549)?
**A.** > 100 µM (inactive)

**Q.** And the GI50 (CAKI-1)?
**A.** > 100 µM (inactive)

**Q.** And the GI50 (CCRF-CEM)?
**A.** > 100 µM (inactive)

**Q.** And the GI50 (COLO 205)?
**A.** > 100 µM (inactive)

**Q.** And the GI50 (DU-145)?
**A.** > 100 µM (inactive)

**Q.** What about the GI50 (EKVX) of the same compound?
**A.** > 100 µM (inactive)

**Q.** And the GI50 (HCT-116)?
**A.** > 100 µM (inactive)

**Q.** And the GI50 (HCT-15)?
**A.** > 100 µM

**Q.** What about the GI50 (HL-60) of the same compound?
**A.** > 10 µM (inactive)

**Q.** And the GI50 (HOP-62)?
**A.** > 100 µM (inactive)

**Q.** And the GI50 (HOP-92)?
**A.** > 100 µM (inactive)

**Q.** What about the GI50 (HT-29) of the same compound?
**A.** > 100 µM (inactive)

**Q.** And the GI50 (Hs-578T)?
**A.** > 100 µM (inactive)

**Q.** And the GI50 (IGROV-1)?
**A.** > 100 µM (inactive)

**Q.** And the GI50 (K562)?
**A.** > 100 µM (inactive)

**Q.** What about the GI50 (KM12) of the same compound?
**A.** 37.8 µM (inactive)

**Q.** And the GI50 (LOX IMVI)?
**A.** > 100 µM (inactive)

**Q.** And the GI50 (M14)?
**A.** > 100 µM (inactive)

**Q.** What about the GI50 (MCF7) of the same compound?
**A.** > 100 µM (inactive)

**Q.** And the GI50 (MDA-MB-231)?
**A.** > 100 µM (inactive)

**Q.** What about the GI50 (MDA-MB-435) of the same compound?
**A.** > 100 µM (inactive)

**Q.** What about the GI50 (MDA-N) of the same compound?
**A.** > 100 µM (inactive)

**Q.** And the GI50 (MOLT-4)?
**A.** > 100 µM (inactive)

**Q.** And the GI50 (Malme-3M)?
**A.** > 100 µM (inactive)

**Q.** And the GI50 (NCI-H226)?
**A.** > 100 µM (inactive)

**Q.** And the GI50 (NCI-H23)?
**A.** > 100 µM (inactive)

**Q.** And the GI50 (NCI-H522)?
**A.** > 100 µM (inactive)

**Q.** And the GI50 (NCI/ADR-RES)?
**A.** > 100 µM (inactive)

**Q.** And the GI50 (OVCAR-3)?
**A.** 65.2 µM (inactive)

**Q.** And the GI50 (OVCAR-4)?
**A.** 29.3 µM (inactive)

**Q.** What about the GI50 (OVCAR-5) of the same compound?
**A.** > 100 µM (inactive)

**Q.** What about the GI50 (OVCAR-8) of the same compound?
**A.** > 100 µM (inactive)

**Q.** What about the GI50 (RPMI-8226) of the same compound?
**A.** > 100 µM (inactive)

**Q.** And the GI50 (RXF 393)?
**A.** > 100 µM (inactive)

**Q.** And the GI50 (SF-268)?
**A.** > 100 µM (inactive)

**Q.** And the GI50 (SF-295)?
**A.** > 100 µM (inactive)

**Q.** And the GI50 (SF-539)?
**A.** > 100 µM (inactive)

**Q.** What about the GI50 (SK-MEL-2) of the same compound?
**A.** > 100 µM (inactive)

**Q.** And the GI50 (SK-MEL-5)?
**A.** > 100 µM (inactive)

**Q.** What about the GI50 (SK-OV-3) of the same compound?
**A.** > 100 µM (inactive)

**Q.** And the GI50 (SN12C)?
**A.** > 100 µM (inactive)

**Q.** And the GI50 (SNB-19)?
**A.** > 100 µM (inactive)

**Q.** And the GI50 (SNB-75)?
**A.** > 100 µM (inactive)

**Q.** What about the GI50 (SR) of the same compound?
**A.** > 100 µM (inactive)

**Q.** And the GI50 (SW-620)?
**A.** > 100 µM (inactive)

**Q.** And the GI50 (T47D)?
**A.** > 100 µM (inactive)

**Q.** What about the GI50 (TK-10) of the same compound?
**A.** > 100 µM (inactive)

**Q.** And the GI50 (UACC-257)?
**A.** > 100 µM (inactive)

**Q.** And the GI50 (UACC-62)?
**A.** > 100 µM (inactive)

**Q.** What about the GI50 (UO-31) of the same compound?
**A.** > 100 µM (inactive)
